From patent US8147838B2, “Peptide” (priority 2005, dated 2012)
Residues, ends and D or L forms follow the SMILES beside them. No end group written: not given here.

Columns and labels:
[1] = target: MHC class I allele A*0301 (A3) (Homo sapiens, UniProt P04439); assay: iScore multi-parametric analysis, A*0301; type: binding; details: for iScore, MHC Class I Molecule A*0301: level of binding: >0.5, 0.25-0.5, <0.25
Description: (§1) Finally, multiparametric analysis is performed on the results from these assays and an iScore is generated. The iScore represents a measure of the overall quality of peptide-MHC binding, enabling candidate peptides to be ranked in order of binding quality and allowing rational prioritisation of peptides for functional cellular follow-up studies.
(§2) As part of the validation of the iTopia system, a panel of overlapping peptides derived from the CMV pp 65 protein were used and their binding properties for the A*0201 allele analysed. A number of T cell epitopes restricted by HLA A*0201 had already been identified (by more conventional methodologies) by other researchers for this protein. In the iTopia study, it was reported that an iScore of: >0.5 represented “good quality binding”; between 0.25 and 0.5 represented “medium quality binding”; and <0.25 represented “poor quality binding”. Six of the 20 peptides which gave a “good” iScore (>0.5) for A*0201, represented previously characterised CMV pp 65 A*0201 epitopes.
(§3) Each MHC class I allele has different binding properties and affinities for peptides which they bind. Therefore, information obtained with HLA A*0201 in which peptides are ranked as good, medium or poor binders using >0.5, 0.25-0.5 and <0.25 as thresholds is not necessarily transferable between alleles. Also, different proteins are likely to have distinct immunogenic profiles and the affinities between peptides and MHC class I molecules will be different between proteins. This may be particularly relevant in the case of self-antigens where immunogenicity is likely to be lower than in foreign proteins.
(§4) Multi-parametric analysis permits the integration of half-life and ED50 parameters in an integrated iScore. This reflects the capability of a peptide to reconstitute with MHC molecules in a stable complex, defining its overall level of binding i.e. the iScore value represents the overall quality of peptide-MHC binding and is used to rank candidate peptides as an indicator of functional relevance. The lead candidate epitopes for each allele are selected for cellular functional analysis to confirm their biological relevance.
(§5) The changes in gradient of the graphs in FIGS. 7 to 10 are indicated by a line which delineates the populations of iScores forming the basis of discrimination for further functional studies.

[2] = target: MHC class I allele A*0201 (A2) (Homo sapiens, UniProt P04439, D140Y/D185E/D98H/E176V/E277Q/G131W/G231S/I119V/I121R/I166T/I218V/L300P/L318F/N151K/N90K/P208A/P217A/Q86G/Q94H/R138H/R169H/T345S); assay: iScore multi-parametric analysis, A*0201; type: binding; details: level of binding: >0.5, 0.25-0.5, <0.25
Description: as §1, §2, §3, §4, §5

[3] = target: MHC class I allele B*0702 (B7) (Homo sapiens, UniProt P01889); assay: iScore multi-parametric analysis, B*0702; details: level of binding: >0.5, 0.25-0.5, <0.25
Description: as §1
As part of the validation of the iTopia system, a panel of overlapping peptides derived from the CMV pp 65 protein were used and their binding properties for the A*0201 allele analysed. A number of T cell epitopes restricted by HLA A*0201 had already been identified (by more conventional methodologies) by other researchers for this protein. In the iTopia study, it was reported that an iScore of: >0.5 represented “good quality binding”; between 0.25 and 0.5 represented “medium quality binding”; and <0.25 represented “poor quality binding”.
as §4

[4] = target: MHC class I allele A*0101 (A1) (Homo sapiens, UniProt P04439, A114D/A174V/A182V/D101N/D185E/E176A/E190D/L180R/Q94H/R68K/S129P/T187R/V100A/V91M/W191G); assay: iScore multi-parametric analysis, A*0101; type: binding; details: level of binding: >0.5, 0.25-0.5, <0.25
Description: as §1, §2, §3, §4, §5

Molecule | iScore, MHC Class I Molecule A*0301 [1] | iScore, MHC Class I Molecule A*0201 [2] | iScore, MHC Class I Molecule B*0702 [3] | iScore, MHC Class I Molecule A*0101 [4] | iScore (iTopia), A*0301 ([1]; integrates half-life and ED50)
C[C@H](NC(=O)[C@H](C)NC(=O)[C@@H]1CCCN1C(=O)CNC(=O)[C@H](CCCNC(=N)N)NC(=O)[C@H](CO)NC(=O)[C@H](CS)NC(=O)CNC(=O)CN)C(=O)O [Peptide 2] | 0 | 0.016 | 0.012 | 0 | 
CSCC[C@H](NC(=O)[C@H](CC(=O)O)NC(=O)[C@H](C)NC(=O)[C@H](CCSC)NC(=O)[C@H](Cc1c[nH]cn1)NC(=O)[C@H](CS)NC(=O)[C@H](CC(=O)O)NC(=O)[C@H](CS)NC(=O)[C@@H](N)C(C)C)C(=O)O [Peptide 149] (H-VCDCHMADM-OH; N-terminus and C-terminus assumed) | 0 | 0.061 | 0 | 0 | 
CC[C@H](C)[C@H](NC(=O)[C@H](C)NC(=O)CNC(=O)[C@@H](NC(=O)[C@@H](N)CC(C)C)[C@@H](C)CC)C(=O)N[C@@H](Cc1ccccc1)C(=O)N[C@@H](CC(C)C)C(=O)N[C@@H](CC(C)C)C(=O)N[C@H](C(=O)O)C(C)C [Peptide 183] | 0.07 | 1.897 | 0 | 0 | 
CC(C)C[C@H](NC(=O)[C@H](Cc1ccc(O)cc1)NC(=O)[C@H](CC(C)C)NC(=O)[C@@H](NC(=O)[C@H](CC(C)C)NC(=O)[C@@H](N)CC(C)C)C(C)C)C(=O)N[C@@H](CC(N)=O)C(=O)N[C@@H](CCCNC(=N)N)C(=O)N[C@@H](CCCCN)C(=O)O [Peptide 186] | 0.372 | 0.386 |  | 0 | 0.375
AARTVKCVN [Peptide 36] | 0 | 0.115 | 0.059 | 0 | 
ADLSPFAFS [Peptide 78] | 0 | 0.116 | 0 | 0 | 
ADPRLTNLS [Peptide 204] | 0 | 0 | 0.094 | 0 | 
AGDGRLRLA [Peptide 6] | 0 | 0.023 | 0 | 0 | 
ALKVLHNGT [Peptide 135] | 0 | 0.104 | 0 | 0 | 
APFLASAVS [Peptide 23] | 0 | 0.041 | 0.176 | 0 | 
APSPLVELI [Peptide 86] | 0 | 0 | 0.101 | 0 | 
AQLPSLRHL [Peptide 116] | 0 | 0.162 | 0 | 0 | 
ASVSAPSPL [Peptide 84] | 0 | 0.059 | 0.017 | 0 | 
AVSAQPPLP [Peptide 26] | 0 | 0.062 | 0 | 0 | 
AYVRNLFLT [Peptide 46] | 0 | 0.18 | 0 | 0 | 
CVNRNLTEV [Peptide 39] | 0 | 0.05 | 0.093 | 0 | 
